Laboratory results: PMC9481570, “A small molecule antagonist of SMN disrupts the interaction between SMN and RNAP II” (Nature Communications, 2022)
“And” between values parts separate entries of the source, which are not always exact repeats. Identical values can stand only once.

Assays:
Test in all cases: Affinity-purification and mass spectrometry (AP-MS) chemical proteomics, all proteins;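 as to Difference: 200 µM free competitor with 20 µM biotin probe overnight in lysate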
Assay type in all cases: binding
[1] = molecular target: T1, proteins displaced from immobilized biotin-Cmpd 1 pulldowns (U2OS cell lysate) (Homo sapiens, UniProt O43684); details: GN=BUB3 (O43684)
T1 construct: endogenous in cells; host or cells: U2OS

[2] = molecular target: T2, proteins displaced from immobilized biotin-Cmpd 1 pulldowns (U2OS cell lysate) (Homo sapiens, UniProt Q9NZT1); details: GN=CALML5 (Q9NZT1)
T2 construct: endogenous in cells; host or cells: U2OS

[3] = molecular target: T3, proteins displaced from immobilized biotin-Cmpd 1 pulldowns (U2OS cell lysate) (Homo sapiens, UniProt O75683); details: GN=SURF6 (O75683)
T3 construct: endogenous in cells; host or cells: U2OS

[4] = molecular target: T4, proteins displaced from immobilized biotin-Cmpd 1 pulldowns (U2OS cell lysate) (Homo sapiens, UniProt Q96AE4); details: GN=FUBP1 (Q96AE4)
T4 construct: endogenous in cells; host or cells: U2OS

[5] = system: proteins displaced from immobilized biotin-Cmpd 1 pulldowns (U2OS cell lysate); details: Cmpd minus DMSO
[6] = molecular target: T5, proteins displaced from immobilized biotin-Cmpd 1 pulldowns (U2OS cell lysate) (Homo sapiens, UniProt P62306); details: GN=SNRPF (P62306)
T5 construct: endogenous in cells; host or cells: U2OS

[7] = molecular target: T6, proteins displaced from immobilized biotin-Cmpd 1 pulldowns (U2OS cell lysate) (Homo sapiens, UniProt P20042); details: GN=EIF2S2 (P20042)
T6 construct: endogenous in cells; host or cells: U2OS

[8] = molecular target: T7, proteins displaced from immobilized biotin-Cmpd 1 pulldowns (U2OS cell lysate) (Homo sapiens, UniProt P01876); details: GN=IGHA1 (P01876)
T7 construct: endogenous in cells; host or cells: U2OS

[9] = molecular target: T8, proteins displaced from immobilized biotin-Cmpd 1 pulldowns (U2OS cell lysate) (Homo sapiens, UniProt Q02880); details: GN=TOP2B (Q02880)
T8 construct: endogenous in cells; host or cells: U2OS
T8 sequence (Q02880 whole entry): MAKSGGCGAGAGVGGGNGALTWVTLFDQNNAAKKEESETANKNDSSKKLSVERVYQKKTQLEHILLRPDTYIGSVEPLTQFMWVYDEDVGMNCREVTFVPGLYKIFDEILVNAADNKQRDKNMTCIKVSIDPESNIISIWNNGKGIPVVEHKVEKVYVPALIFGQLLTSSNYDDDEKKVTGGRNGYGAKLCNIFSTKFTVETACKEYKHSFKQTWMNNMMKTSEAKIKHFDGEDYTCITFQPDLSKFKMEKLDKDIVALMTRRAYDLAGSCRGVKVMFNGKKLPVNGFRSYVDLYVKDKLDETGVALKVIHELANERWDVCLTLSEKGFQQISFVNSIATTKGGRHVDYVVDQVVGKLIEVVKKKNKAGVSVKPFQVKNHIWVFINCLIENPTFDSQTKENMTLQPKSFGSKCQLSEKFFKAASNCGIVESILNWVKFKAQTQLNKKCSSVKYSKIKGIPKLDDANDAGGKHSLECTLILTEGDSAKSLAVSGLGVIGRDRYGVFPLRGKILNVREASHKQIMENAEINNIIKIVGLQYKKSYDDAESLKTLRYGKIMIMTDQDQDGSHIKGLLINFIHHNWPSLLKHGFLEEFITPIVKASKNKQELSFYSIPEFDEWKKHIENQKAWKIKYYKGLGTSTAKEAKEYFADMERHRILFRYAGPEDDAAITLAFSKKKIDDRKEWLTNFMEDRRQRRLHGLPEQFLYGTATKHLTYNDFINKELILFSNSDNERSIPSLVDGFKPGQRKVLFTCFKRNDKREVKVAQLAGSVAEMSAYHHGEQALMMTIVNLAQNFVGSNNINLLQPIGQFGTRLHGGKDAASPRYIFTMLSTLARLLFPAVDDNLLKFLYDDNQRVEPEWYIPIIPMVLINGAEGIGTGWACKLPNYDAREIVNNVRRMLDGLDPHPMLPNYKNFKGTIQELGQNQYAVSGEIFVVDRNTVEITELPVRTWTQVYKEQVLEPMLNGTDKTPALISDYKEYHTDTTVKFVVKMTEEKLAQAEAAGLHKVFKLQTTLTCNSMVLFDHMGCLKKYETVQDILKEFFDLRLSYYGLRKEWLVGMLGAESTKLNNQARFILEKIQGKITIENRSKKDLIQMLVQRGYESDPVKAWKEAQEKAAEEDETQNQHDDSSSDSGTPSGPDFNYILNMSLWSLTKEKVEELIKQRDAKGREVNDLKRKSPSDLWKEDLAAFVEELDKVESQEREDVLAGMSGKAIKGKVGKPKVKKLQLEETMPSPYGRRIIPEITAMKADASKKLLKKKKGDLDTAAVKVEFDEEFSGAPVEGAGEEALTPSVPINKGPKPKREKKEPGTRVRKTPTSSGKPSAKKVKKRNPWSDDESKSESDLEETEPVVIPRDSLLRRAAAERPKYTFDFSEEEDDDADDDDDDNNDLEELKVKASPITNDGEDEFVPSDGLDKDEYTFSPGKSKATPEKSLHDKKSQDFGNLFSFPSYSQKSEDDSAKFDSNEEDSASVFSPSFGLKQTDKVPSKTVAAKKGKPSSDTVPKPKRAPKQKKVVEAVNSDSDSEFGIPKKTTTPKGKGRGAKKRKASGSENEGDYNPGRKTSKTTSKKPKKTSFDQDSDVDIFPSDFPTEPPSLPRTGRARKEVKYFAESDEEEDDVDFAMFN

T2 sequence (Q9NZT1 whole entry): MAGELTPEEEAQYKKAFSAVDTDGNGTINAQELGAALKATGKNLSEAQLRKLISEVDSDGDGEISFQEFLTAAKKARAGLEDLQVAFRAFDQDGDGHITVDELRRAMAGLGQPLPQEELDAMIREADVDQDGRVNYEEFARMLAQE
T1 sequence (O43684 whole entry): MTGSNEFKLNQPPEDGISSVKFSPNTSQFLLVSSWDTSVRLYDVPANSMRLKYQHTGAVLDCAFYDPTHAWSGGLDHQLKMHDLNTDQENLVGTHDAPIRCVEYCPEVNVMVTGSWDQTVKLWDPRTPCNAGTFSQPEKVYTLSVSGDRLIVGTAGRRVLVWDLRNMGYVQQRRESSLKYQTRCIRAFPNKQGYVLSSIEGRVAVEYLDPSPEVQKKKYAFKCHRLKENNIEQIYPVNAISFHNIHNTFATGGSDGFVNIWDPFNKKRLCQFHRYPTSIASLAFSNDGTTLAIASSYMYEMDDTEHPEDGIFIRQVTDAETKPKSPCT
T5 sequence (P62306 whole entry): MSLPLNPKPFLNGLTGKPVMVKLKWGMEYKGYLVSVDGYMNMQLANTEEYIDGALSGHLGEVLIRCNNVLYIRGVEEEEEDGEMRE
T6 sequence (P20042 whole entry): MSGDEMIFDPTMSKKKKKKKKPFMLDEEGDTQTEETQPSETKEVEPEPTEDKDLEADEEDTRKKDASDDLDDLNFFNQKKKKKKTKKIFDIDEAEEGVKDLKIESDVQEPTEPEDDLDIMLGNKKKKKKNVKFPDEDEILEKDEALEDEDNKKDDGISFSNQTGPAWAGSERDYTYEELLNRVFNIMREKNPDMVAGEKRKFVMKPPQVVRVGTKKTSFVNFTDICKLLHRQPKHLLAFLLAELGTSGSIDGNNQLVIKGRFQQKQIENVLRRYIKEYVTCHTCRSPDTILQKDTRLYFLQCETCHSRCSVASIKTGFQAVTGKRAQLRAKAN
T3 sequence (O75683 whole entry): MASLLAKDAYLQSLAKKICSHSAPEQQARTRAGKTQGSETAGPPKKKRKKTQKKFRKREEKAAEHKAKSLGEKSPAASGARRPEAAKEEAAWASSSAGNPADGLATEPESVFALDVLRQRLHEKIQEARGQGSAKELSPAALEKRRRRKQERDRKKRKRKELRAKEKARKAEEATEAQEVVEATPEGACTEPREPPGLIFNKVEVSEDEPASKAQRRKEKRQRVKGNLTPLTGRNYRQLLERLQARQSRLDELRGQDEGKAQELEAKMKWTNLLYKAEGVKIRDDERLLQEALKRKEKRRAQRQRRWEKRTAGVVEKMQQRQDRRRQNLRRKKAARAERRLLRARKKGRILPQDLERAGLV
T4 sequence (Q96AE4 whole entry): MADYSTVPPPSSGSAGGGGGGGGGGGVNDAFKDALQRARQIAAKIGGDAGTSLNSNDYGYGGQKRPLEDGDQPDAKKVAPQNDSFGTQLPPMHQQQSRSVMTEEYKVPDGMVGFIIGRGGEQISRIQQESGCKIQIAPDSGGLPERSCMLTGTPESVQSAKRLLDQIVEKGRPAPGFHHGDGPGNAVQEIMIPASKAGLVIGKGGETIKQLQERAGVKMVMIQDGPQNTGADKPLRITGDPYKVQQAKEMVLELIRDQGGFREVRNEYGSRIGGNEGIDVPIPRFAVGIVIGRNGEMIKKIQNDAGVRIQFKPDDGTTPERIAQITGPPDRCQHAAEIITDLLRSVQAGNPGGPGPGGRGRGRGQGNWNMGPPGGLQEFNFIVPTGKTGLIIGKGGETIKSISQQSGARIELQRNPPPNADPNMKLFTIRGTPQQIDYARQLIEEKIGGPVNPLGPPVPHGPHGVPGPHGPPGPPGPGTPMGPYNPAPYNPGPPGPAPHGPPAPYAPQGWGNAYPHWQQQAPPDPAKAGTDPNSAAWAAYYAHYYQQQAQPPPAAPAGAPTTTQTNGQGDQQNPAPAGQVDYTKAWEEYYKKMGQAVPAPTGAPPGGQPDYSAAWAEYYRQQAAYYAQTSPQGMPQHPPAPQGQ
T7 sequence (P01876 whole entry): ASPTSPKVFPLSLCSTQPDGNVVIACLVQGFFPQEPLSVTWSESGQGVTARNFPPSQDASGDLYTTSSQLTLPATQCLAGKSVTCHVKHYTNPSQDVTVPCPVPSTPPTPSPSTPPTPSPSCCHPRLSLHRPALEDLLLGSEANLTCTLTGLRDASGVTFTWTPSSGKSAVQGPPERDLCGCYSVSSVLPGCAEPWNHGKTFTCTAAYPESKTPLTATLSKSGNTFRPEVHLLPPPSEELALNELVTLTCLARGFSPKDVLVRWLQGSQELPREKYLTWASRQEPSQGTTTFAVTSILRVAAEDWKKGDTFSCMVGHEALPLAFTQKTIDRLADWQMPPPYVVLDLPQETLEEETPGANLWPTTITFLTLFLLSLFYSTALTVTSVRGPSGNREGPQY

Cn1c2c(c(=N)c3c1CCC3)CCC2 [Compound 1, 4-methyl-2,3,4,5,6,7-hexahydrodicyclopenta[b,e]pyridin-8(1H)-imine]
Difference ([1]; Cmpd minus DMSO, -LOG(P-value) 1.63376): 1.137 | iBAQ Cmpd ([1]; replicates 1-3): 19.492 and 19.0748 and 18.4379 | Difference ([2]; Cmpd minus DMSO, -LOG(P-value) 2.02756): -2.389 | iBAQ Cmpd ([2]; replicates 1-3): 18.8431 and 20.0939 and 20.182 | Difference ([3]; Cmpd minus DMSO, -LOG(P-value) 1.38004): 2.68 | iBAQ Cmpd ([3]; replicates 1-3): 19.6513 and 20.3325 and 21.9506 | Difference ([4]; Cmpd minus DMSO, -LOG(P-value) 0.798774): 1.187 | iBAQ Cmpd ([4]; replicates 1-3): 19.58 and 17.8353 and 18.5748 | Difference ([5]; GN=ACTA1/ACTC1 (P68133;P68032;P63267;P62736), -LOG(P-value) 1.19415): -2.469 | Difference ([5]; GN=FXR1 (P51114;P51116 FXR2), -LOG(P-value) 0.714644): 1.56 | Difference ([5]; GN=MYL1/MYL3 (P05976;P08590), -LOG(P-value) 0.754366): -4.118 | Difference ([5]; GN=RGPD4/RGPD3 (Q7Z3J3;A6NKT7;P49792), -LOG(P-value) 1.07048): -0.9439 | Difference ([5]; GN=TUBB2A/TUBB2B (Q13885;Q9BVA1), -LOG(P-value) 2.56756): 3.9801 | Difference ([6]; Cmpd minus DMSO, -LOG(P-value) 2.38454): -6.902 | iBAQ Cmpd ([6]; replicates 1-3): 16.7845 and 14.607 and 12.7996 | Difference ([7]; Cmpd minus DMSO, -LOG(P-value) 0.750637): -2.049 | iBAQ Cmpd ([7]; replicates 1-3): 14.3581 and 16.9929 and 16.8192 | Difference ([8]; Cmpd minus DMSO, -LOG(P-value) 0.808053): -3.043 | iBAQ Cmpd ([8]; replicates 1-3): 18.0352 and 17.6842 and 20.2605 | Difference ([9]; Cmpd minus DMSO, -LOG(P-value) 0.742976): 1.036 | iBAQ Cmpd ([9]; replicates 1-3): 16.8685 and 16.1972 and 16.6057
